Assay results: patent US7659426B2, “Target protein of anticancer agent and novel anticancer agent (spnal) corresponding thereto” (Reverse Proteomics Research Institute Co., Ltd., priority 2003, dated 2010)
Entries after “also recorded” stand apart in the source; their conditions may differ.

Experiments:
[1] = biological target: T1, KSRP (MARTA1, a rat protein having a high homology to KSRP) (Rattus norvegicus, UniProt Q99PF5); test: Binding experiments: compound-immobilized resins with rat brain lysate, SDS gel (FIG. 1); details: 4° C.
T1 construct: from tissue; host or cells: rat brain
T1 sequence (Q99PF5 1-721): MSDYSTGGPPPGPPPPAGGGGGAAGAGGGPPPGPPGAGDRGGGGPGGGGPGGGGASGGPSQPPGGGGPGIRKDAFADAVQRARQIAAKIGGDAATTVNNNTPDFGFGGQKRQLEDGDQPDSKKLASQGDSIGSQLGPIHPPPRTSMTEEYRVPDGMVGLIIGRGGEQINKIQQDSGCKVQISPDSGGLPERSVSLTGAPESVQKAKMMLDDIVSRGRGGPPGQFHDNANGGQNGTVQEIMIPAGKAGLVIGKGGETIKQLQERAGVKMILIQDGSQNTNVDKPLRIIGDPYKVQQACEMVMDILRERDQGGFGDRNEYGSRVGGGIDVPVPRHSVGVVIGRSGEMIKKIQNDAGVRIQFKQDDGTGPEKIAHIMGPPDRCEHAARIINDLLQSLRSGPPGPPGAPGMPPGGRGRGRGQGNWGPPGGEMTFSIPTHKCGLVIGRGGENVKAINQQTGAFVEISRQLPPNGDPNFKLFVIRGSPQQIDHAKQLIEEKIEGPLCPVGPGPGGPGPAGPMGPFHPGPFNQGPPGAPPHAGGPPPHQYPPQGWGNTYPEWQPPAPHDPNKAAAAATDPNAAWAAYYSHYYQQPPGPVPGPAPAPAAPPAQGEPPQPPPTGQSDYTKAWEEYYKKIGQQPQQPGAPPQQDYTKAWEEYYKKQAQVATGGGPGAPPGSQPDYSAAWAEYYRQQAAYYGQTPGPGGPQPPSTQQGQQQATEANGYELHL
Experimental: The rat brain (2.4 g) was mixed in a mixture A (25 mM Tris-HCl pH 8.0, 0.5% Tween 20, 300 μM DCC (24 ml; N,N-diethyldithiocarbamate sodium)) and prepared as a homogenate, which was then centrifuged at 9,000 rpm for 10 minutes. The centrifugal supernatant was collected and further centrifuged at 50,000 rpm for 30 minutes. The supernatant thus obtained was used as the lysate.
Each resin (10 μl) and lysate (1 ml) were gently shaken at 4° C. for about 1 hour. Thereafter, centrifugal operation was performed, and each supernatant was collected carefully. Then, each supernatant was again mixed with a fresh compound-bound resin (10 μl). At this time, the separated compound-bound resin was kept to stand at 4° C. as the resin from the first binding experiment. After the mixture was gently stirred for about 3 hours, centrifugal operation was performed, and the supernatant was removed. Subsequently, the compound-bound resin obtained in the second binding experiment and the resin obtained in the first binding experiment were gently washed with mixture A about five times to remove substances other than the protein bound onto the resin to the maximum possible extent. […]

[2] = biological target: T2, COX2 (Homo sapiens, UniProt P35354); details: Cancer Research, 57, pp. 2909-2915 (1997); cited from earlier work
T2 sequence (P35354 18-604): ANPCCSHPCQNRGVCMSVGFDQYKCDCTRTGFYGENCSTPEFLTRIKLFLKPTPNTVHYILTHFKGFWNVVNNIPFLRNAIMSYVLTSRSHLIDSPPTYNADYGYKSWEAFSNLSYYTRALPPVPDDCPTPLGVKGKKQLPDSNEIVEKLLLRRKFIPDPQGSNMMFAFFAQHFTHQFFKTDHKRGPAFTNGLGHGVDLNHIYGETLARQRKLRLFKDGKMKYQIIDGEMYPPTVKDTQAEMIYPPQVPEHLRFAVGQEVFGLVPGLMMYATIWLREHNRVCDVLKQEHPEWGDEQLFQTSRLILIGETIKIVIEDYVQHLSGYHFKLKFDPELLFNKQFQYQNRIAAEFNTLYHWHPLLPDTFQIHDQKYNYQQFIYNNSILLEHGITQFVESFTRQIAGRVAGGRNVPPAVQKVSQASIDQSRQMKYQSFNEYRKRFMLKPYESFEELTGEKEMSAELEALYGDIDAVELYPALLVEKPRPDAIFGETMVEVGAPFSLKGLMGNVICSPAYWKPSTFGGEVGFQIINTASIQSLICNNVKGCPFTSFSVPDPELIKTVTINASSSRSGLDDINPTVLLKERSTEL

[3] = biological target: COX1 (Homo sapiens, UniProt P23219); set-up: key to COX1 inhibitory effect: x: weak effect; ∘: definite inhibitory effect; details: cited from earlier work; for inhibitory effect on COX1: Cancer Research, 57, pp. 2909-2915 (1997)
Sequence of COX1 (P23219 24-599): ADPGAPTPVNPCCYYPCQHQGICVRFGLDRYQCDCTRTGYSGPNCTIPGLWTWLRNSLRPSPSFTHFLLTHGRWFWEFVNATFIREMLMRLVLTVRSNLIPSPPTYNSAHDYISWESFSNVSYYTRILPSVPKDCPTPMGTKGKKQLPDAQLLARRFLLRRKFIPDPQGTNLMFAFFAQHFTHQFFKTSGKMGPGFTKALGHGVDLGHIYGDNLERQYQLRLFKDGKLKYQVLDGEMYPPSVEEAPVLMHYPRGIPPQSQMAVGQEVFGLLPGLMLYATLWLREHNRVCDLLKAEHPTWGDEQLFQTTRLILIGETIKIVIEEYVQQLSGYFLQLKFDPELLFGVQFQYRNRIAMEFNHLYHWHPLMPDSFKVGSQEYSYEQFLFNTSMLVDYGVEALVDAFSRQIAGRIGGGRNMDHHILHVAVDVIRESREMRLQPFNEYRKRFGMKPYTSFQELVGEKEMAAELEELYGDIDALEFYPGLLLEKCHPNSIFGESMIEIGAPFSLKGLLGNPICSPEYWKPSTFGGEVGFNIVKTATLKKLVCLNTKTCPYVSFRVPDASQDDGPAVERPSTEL

| SMILES | binding of KSRP (MARTA1) to the compound-immobilized resin [1] | inhibitory effect on COX2 [2] | inhibitory effect on COX1 [3] | COX1 inhibitory effect [3] |
| --- | --- | --- | --- | --- |
| CSc1ccc(/C=C2/C(C)=C(CC(=O)O)c3cc(F)ccc32)cc1 [Sulindac sulfide] | other than the resin immobilized with sulindac sulfide; also recorded: other than the resin wherein sulindac sulfide was immobilized | – | – | – |
| CC1=C(CC(=O)O)c2cc(F)ccc2/C1=C\c1ccc(S(C)(=O)=O)cc1 [Sulindac sulfone] | – | only weak inhibitory effect | only weak inhibitory effect | x |
| CC(=O)O[C@H]1C(=O)[C@@]2(C)[C@H]([C@H](OC(=O)c3ccccc3)[C@]3(O)C[C@H](OC(=O)[C@H](O)[C@@H](NC(=O)c4ccccc4)c4ccccc4)C(C)=C1C3(C)C)[C@]1(OC(C)=O)CO[C@@H]1C[C@@H]2O [Taxol] | binds to KSRP | – | – | – |
| CC1=C(CC(=O)O)c2cc(F)ccc2/C1=C\c1ccc([S+](C)[O-])cc1 (centres unmarked) [Sulindac] | – | only weak inhibitory effect | only weak inhibitory effect | x |
